Data as given in patent publication US9295676B2, “Mutation mimicking compounds that bind to the kinase domain of EGFR” (The Trustees Of The University of Pennsylvania, priority 2011, dated 2016).

Tests used:
[1] = test system: NE91 cells; assay: Anchorage independent growth, soft agar colony formation; assay type: cell-based, mouse
Protocol: Studies on the effects of the target compounds on anchorage-independent growth of tumor cells used four different cell lines, A549, Calu-3, NE91 and T6-17, which have different levels of EGFR molecules on the cell surface. […] Cells were analyzed for their effects on anchorage-independent growth using soft agar assays described previously in Qian, et al., “Inhibition of p185neu kinase activity and cellular transformation of co-expression of a truncated neu protein,” Oncogene, 13: 2149-2157 (1996). The cells were plated in triplicate in 0.4% agar-HBBS and allowed to grow for 2 to 3 weeks. The cells will be fed with 0.5 ml media containing compounds on the day after plating and once a week thereafter. The colonies were stained with the HBSS solution containing 1 mg/ml of P-iodonitrotetrazolium violet (2-[4-iodophenyl]-3-[4-nitrophenyl]-5-phenyltetrazolium chloride). The number of the colonies formed were counted.

[2] = test system: AsPC1 pancreatic tumors; assay: In vivo tumor growth in mice with AsPC1 pancreatic tumors; conditions: for effect on tumor growth, single agent: 15 mg/kg, FIG. 10
From the text: FIG. 10 graphically represents the results of in vivo testing of EEO3 (A) and EEO4 (B) in mice with AsPC1 tumors.

[3] = target: T1, L858R EGFR (Homo sapiens, UniProt P00533, L858R); assay: Western blot of EGFR phosphorylation in mouse fibroblasts expressing L858R EGFR (FIG. 6B); assay type: cell-based
T1 construct: expressed in transfected cells; host or cells: mouse fibroblasts
Protocol: (§1) Total EGFR levels were measured as a control.
That is, while the binding affinity of the compounds tested in non-mutated EGFR defined by the cavity described above (and when Leu is present in the 858 position), when the single mutation is introduced such that Leu-858 is replaced by Arg-858—the binding affinity drops dramatically. […] Accordingly, MMCs may be characterized as having a higher binding constant (lower dissociation constant) for non-mutated vs. L858R mutated EGFR.

[4] = target: T2, wild type human EGFR (Homo sapiens, UniProt P00533); assay: Western blot of EGFR phosphorylation in NE91 cells (FIG. 6A); assay type: cell-based
T2 construct: expressed in transfected cells; host or cells: NE91 (mouse fibroblasts)
Protocol: as §1
Studies measuring total EGFR phosphorylation and phosphorylation of different tyrosines, cell lines NE91, NCI-H1666 and A549 expressing wild type EGFR were treated with the target compounds for 3 hours followed by either induction with 50 ng/ml EGF for 15 min or no EGF induction. The cell lysates were subjected to the immunoprecipitation with anti-EGFR antibodies followed by Western blotting with anti-pY99 (total phospho-tyrosine), anti-pY845, anti-pY1045, anti-pY 1068 and/or anti-pY1173 antibodies.

[5] = test system: NCI-H1666 cells; assay: Apoptosis by annexin V staining and FACS, wild-type EGFR cells; assay type: cell-based; conditions: wild-type EGFR cell line, 1 μM Tarceva® + 1 μM compound, 48 hrs
Protocol: Apoptosis was analyzed by FACS analysis after Annexin V staining and propidium iodide staining of DNA, and by Western blotting tracking caspase cascade activation. […] The cell lysates were subjected to Western blotting with anti-caspase-8, anti-caspase-3, anti-caspase-9 and anti-PARP antibodies to detect cleavage. NCI-H1650 and H3255 cells expressing mutant EGFR were used as a positive control in the apoptosis studies.

| activation of EGFR phosphorylation ([3]; cell line expressing mutant EGFR, compound alone, FIG. 6B lanes 1 and 2) | enhancement of Tarceva®-induced inhibition of EGFR phosphorylation ([3]; mutant cell line, FIG. 6B lanes 7 and 8) | receptor phosphorylation ([4]; compound alone, track 3) | total EGFR levels ([4]; in the presence of the compound) | SMILES | inhibitory effect on colony formation, single agent at low concentration ([1]; low concentration, 1 nM, FIG. 8B) | effect on tumor growth, single agent [2] | inhibitory effect on cell growth in combination with Tarceva® ([1]; 0.25 μM, FIG. 8A) | anchorage independent cell growth, single agent ([1]; compound alone, 0.25 μM, FIG. 8A) | enhancement of the inhibitory effect of Tarceva® on colony formation ([1]; with a low concentration of Tarceva®, 1 nM, FIG. 8B) | Tarceva®-induced inhibition of EGFR phosphorylation ([4]; in combination with Tarceva®, track 4) | antitumor effect of the combination with Tarceva® ([2]; Tarceva® with 15 mg/kg of EEO3, FIG. 10) | apoptotic activity of Tarceva® in the presence of the MMC [5] |
| --- | --- | --- | --- | --- | --- | --- | --- | --- | --- | --- | --- | --- |
| – | – | – | – | C#Cc1cccc(Nc2ncnc3cc(OCCOC)c(OCCOC)cc23)c1 [Tarceva®, erlotinib, reference compound] | does not have any inhibitory effect by itself | only a modest effect on tumor growth | – | – | – | – | – | – |
| does not activate EGFR phosphorylation | does not enhance | enhancement of receptor phosphorylation | No changes in total EGFR levels | CC1(C)Cc2cccc(C(=O)N3CCC(O)(c4ccc(Cl)cc4)CC3)c2O1 [EEO3] | – | weak antitumor effect similar to Tarceva® alone | enhanced the inhibitory effect on cell growth | stimulated cell growth | even more dramatic | enhancement of Tarceva®-induced inhibition of EGFR phosphorylation | significant synergistic antitumor effect | – |
| – | – | – | – | Nc1ccccc1Sc1nc(-c2ccccc2N)ccc1[N+](=O)[O-] [EEN6A] | – | – | – | – | – | – | – | increased to the level observed with Tarceva® alone in the mutant cell line |
